Results published in ChEMBL document CHEMBL3044740, “Syntheses and evaluation of 2,5-disubstituted 4-thiazolidinone analogues as antimicrobial agents” (2012).
Activity calls are given as the source filed them. The rule behind the calls is not given here.

Experiments:
Assay type in all cases: functional
Escherichia coli [1] = test: Antibacterial activity against Escherichia coli MTCC 739 at 100 ug/ml by cup-plate method; conditions: read-out: DIZ
Bacillus subtilis [2] = test: Antibacterial activity against Bacillus subtilis MTCC 121 at 100 ug/ml by cup plate method; conditions: read-out: DIZ
Pseudomonas aeruginosa [3] = test: Antibacterial activity against Pseudomonas aeruginosa MTCC 2453 at 300 ug/ml by cup-plate method; conditions: read-out: DIZ
Bacillus subtilis [4] = test: Antibacterial activity against Bacillus subtilis MTCC 121 at 200 ug/ml by cup plate method; conditions: read-out: DIZ
Escherichia coli [5] = test: Antibacterial activity against Escherichia coli MTCC 739 at 300 ug/ml by cup-plate method; conditions: read-out: DIZ
Candida albicans [6] = test: Antifungal activity against Candida albicans MTCC 227 at 50 ug/ml by cup-plate method; conditions: for zone of inhibition at 50 µg/mL: read-out: DIZ
Staphylococcus aureus [7] = test: Antibacterial activity against Staphylococcus aureus MTCC 96 at 50 ug/ml by cup-plate method; conditions: read-out: DIZ
Bacillus subtilis [8] = test: Antibacterial activity against Bacillus subtilis MTCC 121 at 50 ug/ml by cup plate method; conditions: read-out: DIZ
Candida albicans [9] = test: Antifungal activity against Candida albicans MTCC 227 at 100 ug/ml by cup-plate method; conditions: for zone of inhibition at 100 µg/mL: read-out: DIZ
Pseudomonas aeruginosa [10] = test: Antibacterial activity against Pseudomonas aeruginosa MTCC 2453 at 50 ug/ml by cup-plate method; conditions: read-out: DIZ
Pseudomonas aeruginosa [11] = test: Antibacterial activity against Pseudomonas aeruginosa MTCC 2453 at 200 ug/ml by cup-plate method; conditions: read-out: DIZ
Pseudomonas aeruginosa [12] = test: Antibacterial activity against Pseudomonas aeruginosa MTCC 2453 at 100 ug/ml by cup-plate method; conditions: read-out: DIZ
Staphylococcus aureus [13] = test: Antibacterial activity against Staphylococcus aureus MTCC 96 at 300 ug/ml by cup-plate method; conditions: read-out: DIZ
Staphylococcus aureus [14] = test: Antibacterial activity against Staphylococcus aureus MTCC 96 at 200 ug/ml by cup-plate method; conditions: read-out: DIZ
Candida albicans [15] = test: Antifungal activity against Candida albicans MTCC 227 at 200 ug/ml by cup-plate method; conditions: for zone of inhibition at 200 µg/mL: read-out: DIZ
Escherichia coli [16] = test: Antibacterial activity against Escherichia coli MTCC 739 at 200 ug/ml by cup-plate method; conditions: read-out: DIZ
Bacillus subtilis [17] = test: Antibacterial activity against Bacillus subtilis MTCC 121 at 300 ug/ml by cup plate method; conditions: read-out: DIZ
Staphylococcus aureus [18] = test: Antibacterial activity against Staphylococcus aureus MTCC 96 at 100 ug/ml by cup-plate method; conditions: read-out: DIZ
Candida albicans [19] = test: Antifungal activity against Candida albicans MTCC 227 at 300 ug/ml by cup-plate method; conditions: for zone of inhibition at 300 µg/mL: read-out: DIZ
Escherichia coli [20] = test: Antibacterial activity against Escherichia coli MTCC 739 at 50 ug/ml by cup-plate method; conditions: read-out: DIZ

Structure (SMILES)	zone of inhibition at 100 µg/mL (Escherichia coli [1])	zone of inhibition at 100 µg/mL (Bacillus subtilis [2])	zone of inhibition at 300 µg/mL (Pseudomonas aeruginosa [3])	zone of inhibition at 200 µg/mL (Bacillus subtilis [4])	zone of inhibition at 300 µg/mL (Escherichia coli [5])	zone of inhibition at 50 µg/mL (Staphylococcus aureus [7])	zone of inhibition at 50 µg/mL (Bacillus subtilis [8])	zone of inhibition at 50 µg/mL (Pseudomonas aeruginosa [10])	zone of inhibition at 200 µg/mL (Pseudomonas aeruginosa [11])	zone of inhibition at 100 µg/mL (Pseudomonas aeruginosa [12])	zone of inhibition at 300 µg/mL (Staphylococcus aureus [13])	zone of inhibition at 200 µg/mL (Staphylococcus aureus [14])	zone of inhibition at 200 µg/mL (Escherichia coli [16])	zone of inhibition at 300 µg/mL (Bacillus subtilis [17])	zone of inhibition at 100 µg/mL (Staphylococcus aureus [18])	zone of inhibition at 50 µg/mL (Escherichia coli [20])	zone of inhibition at 50 µg/mL (Candida albicans [6])	zone of inhibition at 100 µg/mL (Candida albicans [9])	zone of inhibition at 200 µg/mL (Candida albicans [15])	zone of inhibition at 300 µg/mL (Candida albicans [19])	other results
COc1cc(/C=C2\S/C(=N/c3ccc([N+](=O)[O-])cc3)NC2=O)ccc1O	12 mm	12 mm	17 mm	14 mm	13 mm	14 mm	11 mm	14 mm	15 mm	15 mm	17 mm	16 mm	12 mm	15 mm	15 mm	11 mm					diameter of the inhibition zone (DIZ) (Candida albicans [6]): inactive; diameter of the inhibition zone (DIZ) (Candida albicans [9]): inactive; diameter of the inhibition zone (DIZ) (Candida albicans [15]): inactive; diameter of the inhibition zone (DIZ) (Candida albicans [19]): inactive
O=C1N/C(=N\c2ccccc2[N+](=O)[O-])S/C1=C\c1ccccc1Cl	10 mm	13 mm	15 mm	15 mm	12 mm	11 mm	11 mm	8 mm	12 mm	10 mm	15 mm	14 mm	10 mm	18 mm	12 mm	9 mm	10 mm	16 mm	18 mm	19 mm	
O=C1N/C(=N\c2ccccc2[N+](=O)[O-])S/C1=C\c1ccccc1[N+](=O)[O-]	8 mm	9 mm	13 mm	10 mm	11 mm	10 mm	9 mm	10 mm	13 mm	10 mm	14 mm	13 mm	10 mm	10 mm	10 mm	8 mm	10 mm	16 mm	23 mm	26 mm	
O=C1N/C(=N\c2ccccc2[N+](=O)[O-])S/C1=C\c1cccc([N+](=O)[O-])c1	8 mm	15 mm	16 mm	20 mm	15 mm	8 mm	7 mm	10 mm	15 mm	11 mm	16 mm	14 mm	13 mm	22 mm	10 mm	10 mm	10 mm	12 mm	14 mm	16 mm	
